Data set [1] relates to MRSA. Nature of the data set: Bacterial inhibition assay (resazurin), MIC against MRSA. Type of data set: cell-based, Staphylococcus aureus. On the set-up: MIC for MRSA: unit not given here. The conditions noted are these: for MIC: Staphylococcus aureus, MRSA, synthetic compounds, 18 h incubation; for MIC for MRSA: Table 6 summary. In general terms: The colour change of resazurin is a common sign of viable cells or microbes.

Data set [2] relates to M. tuberculosis H37Rv. Nature of the data set: Bacterial inhibition assay (resazurin), MIC against M. tuberculosis. Type of data set: cell-based, Mycobacterium tuberculosis. On the set-up: MIC for TB. H37Rv: unit not given here. The conditions noted are these: for MIC: Mycobacterium tuberculosis, H37RV, 168 h; for MIC for TB. H37Rv: Table 6 summary.
The test system of a further data set is E. coli EC958. Nature of the data set: Bacterial inhibition assay (resazurin), MIC against E. coli. It counts as cell-based, Escherichia coli. The conditions noted are these: synthetic compounds, 18 h incubation; for MIC: Escherichia coli, EC958.
The test system of the next data set is P. aeruginosa PAO1. Nature of the data set: Bacterial inhibition assay (resazurin), MIC against P. aeruginosa. It counts as cell-based, Pseudomonas aeruginosa. The conditions noted are these: Pseudomonas aeruginosa, PAO1; synthetic compounds, 18 h incubation.
Another data set deals with A549. It counts as cell-based. To be noted: human, 7 days. The protocol: (§1) Human alveolar epithelial cells (A549), ([Giard et al., 1973]), Madin-Darby canine kidney epithelial cells (MDCK), ([Gaush et al., 1966]), human leukemia cells (THP-1) ([Tsuchiya et al., 1980]), human hepatocellular carcinoma cells (Hep-G2), ([Aden et al., 1979]), and human embryonic kidney cells 293 (HEK293) ([Graham et al., 1977]) were grown and differentiated in complete RPMI (Roswell Park Memorial Institute Medium) and DMEM (Dulbecco’s Modified Eagle’s medium) tissue culture media (RPMIc and DMEMc). To determine toxicity of the AIMS extract library, 2 × 10^5 of each cell type were added to a 96-well plate and left for 48 h at 37°C to adhere. Extract samples at a final concentration of 0.5 mg mL^–1 were added to the wells, then incubated for 7 days in a humidified 5% CO2 incubator at 37°C. Then resazurin (10 μL of 0.05% w/v) was added, and after 4 h, fluorescence measured as described previously. Cell viability was calculated as percentage fluorescence relative to untreated cells.

Another data set relates to HEK 293. Type of data set: cell-based. The conditions noted are these: human, 7 days. The protocol: as §1
The next data set has as its system HepG2. Type of data set: cell-based. To be noted: human, 7 days. The protocol: as §1
In another data set the test system is THP1. Type of data set: cell-based. The conditions noted are these: human, 7 days. The protocol:
as §1

The subject of data set [3] is MRSA. Nature of the data set: Checkerboard assay with vancomycin against MRSA. It counts as cell-based, Staphylococcus aureus. The conditions noted are these: MRSA; for MIC50: Staphylococcus aureus, compound alone.
Data set [4] relates to M. tuberculosis H37Rv. Nature of the data set: Checkerboard assay with rifampicin against M. tuberculosis. It counts as cell-based, Mycobacterium tuberculosis. To be noted: for Drug–drug interactions / FIC: M. tuberculosis, compound with rifampicin; for MIC50: Mycobacterium tuberculosis, H37RV, read-out: Compound alone MIC50 for M. tuberculosis.
The test system of data set [5] is MRSA. Nature of the data set: Minimum bactericidal concentration (MBC) for MRSA. Type of data set: cell-based, Staphylococcus aureus. On the set-up: unit not given here. The conditions noted are these: sub-culture on agar, 18 h.
For another data set, the system named is TB. H37Rv. Nature of the data set: Minimum bactericidal concentration (MBC) for TB. It counts as cell-based, Mycobacterium tuberculosis. On the set-up: unit not given here. To be noted: sub-culture on agar, 7 days.
Data set [6] concerns MRSA. Nature of the data set: Time-kill study against MRSA. The conditions noted are these: for Effect of sub-inhibitory combination with vancomycin on MRSA growth: sub-inhibitory combinations with vancomycin; for Concentration at which killing was observed: time-kill, MRSA. It counts as cell-based, Staphylococcus aureus.
In another data set the test system is M. tuberculosis. Nature of the data set: Time-kill study against M. tuberculosis. It counts as cell-based, Mycobacterium tuberculosis. The conditions noted are these: rifampicin plus compound, day 7 of treatment. The method, then:
Time-kill experiments were performed by culturing MRSA and M. tuberculosis in liquid medium in the presence of six synthesized sample concentrations in doubling dilutions ranging from 8 to 0.001 × MIC and 2 × MIC for both bacteria, respectively. Growth curves were initially generated to confirm that bacteria would reach a stable early- to mid-log phase after 2 and 48 h of pre-incubation in antimicrobial-free both medium, respectively. Samples were taken in different incubation times after drug exposure at 0, 2, 4, 6, 8, and 24 h for MRSA and 24, 48 h, and 4 and 6 days for M. tuberculosis and then plated onto agar plates for CFU determination. The experiments were carried out in duplicate and repeated three times.

The subject of a further data set is resistant strains. Nature of the data set: MIC against resistant strains. Type of data set: cell-based. The conditions noted are these: read-out: MIC against resistant strains.
Data set [7] has as its system A549, THP-1, HepG2 and HEK 293 cell lines. It counts as cell-based, human. The protocol: as §1
[8] abbreviates: synthetic compounds, 7 days incubation.

In brackets after ≈: the same amount, converted by molar mass. Bounds are passed on as bounds.

For orientation: MIC means the least concentration at which growth counts as inhibited. A word on the MIC50: it is the lowest concentration that inhibits either 50% of growth or 50% of the strains tested, depending on the study. Regarding `CCCCCCCCN(CCCCCCCC)CCCCCCCC` [Compound 13, N,N,N-Trioctylammonium Chloride], the minimum inhibitory concentration (MIC) in the data set with MRSA [1] is 12.5 ± 2.7 µM; against M. tuberculosis H37Rv [2] (setting [8]) it was 0.02 µM; against E. coli EC958, 25 ± 2 µM; against P. aeruginosa PAO1, 25 ± 4 µM; with resistant strains it was at least 0.24 µM. In addition, the “MIC for MRSA” value in the data set on MRSA [1] was 12.5. In the data set with M. tuberculosis H37Rv [2], the “MIC for TB. H37Rv” value is reported as 0.02. Besides, the “MIC M. tuberculosis” value against M. tuberculosis H37Rv [2] (setting [8]) amounted to 0.02 ± 1.1 µM. For the same compound, the “Minimum toxicity concentration of drug (MTC) A549” value with A549 was 50 ± 1.4 µM. Further, the “Minimum toxicity concentration of drug (MTC) HEK 293” value with HEK 293 worked out at 6.5 ± 3.0 µM. In addition, the “Minimum toxicity concentration of drug (MTC) HepG2” value in the data set with HepG2 is over 100 ± 5.2 µM. Moreover, in the data set with THP1, the “Minimum toxicity concentration of drug (MTC) THP1” value is 3.1 ± 0.7 µM. For the same compound, the “Drug–drug interactions” value in the data set with MRSA [3] (compound with vancomycin) and in the data set on M. tuberculosis H37Rv [4] was “Indifference (0.25–4 indifferent or additive activity)” throughout. Moreover, the MIC50 was found to be 12.5 µM with MRSA [3] and 0.02 µM in the data set on M. tuberculosis H37Rv [4]. Besides, the FIC with M. tuberculosis H37Rv [4] amounted to 1.1. The “MBC for MRSA” value in the data set on MRSA [5] was determined as 100. Besides, in the data set with TB. H37Rv, the “MBC for TB. H37Rv” value was 0.39. For the same compound, the “Effect of sub-inhibitory combination with vancomycin on MRSA growth” value in the data set on MRSA [6] is reported as “substantially inhibited growth of MRSA”. Further, the “Concentration at which killing was observed” value with MRSA [6] was over 100 μg mL^–1. Moreover, in the data set on M. tuberculosis, the “Killing effect with rifampicin” value is “comparable killing effects”. For the same compound, in data set [7], the “Toxicity against THP1 and/or HEK 293 cells” value is given as “some toxicity”.

With `CCCCCCCCN(CCCCCCCC)CCc1cn(-c2ccc3c4c(cccc24)C(=O)N(CC)C3=O)nn1` [Compound 18, 6-(4-(2-(Dioctylamino) Ethyl)-1H-1,2,3-Triazol-1-yl)-2-Ethyl-1H-Benzo[de]isoquinoline-1,3(2H)-Dione], the MIC against MRSA [1] is 12.5 ± 2 µM (≈ 7 µg/mL); with M. tuberculosis H37Rv [2] (setting [8]), 12.5 ± 1 µM (≈ 7 µg/mL); in the data set on E. coli EC958, 1.5 µM (≈ 0.84 µg/mL); against P. aeruginosa PAO1, 12.5 ± 0.8 µM (≈ 7 µg/mL); in the data set on resistant strains it was 2.2 µM (≈ 1.23 µg/mL). For the same compound, the “MIC for MRSA” value against MRSA [1] was determined as 12.5. The “MIC for TB. H37Rv” value with M. tuberculosis H37Rv [2] was determined as 6.25. The “MIC E. coli” value in the data set on E. coli EC958 worked out at 1.5 ± 4.0 µM (≈ 0.84 µg/mL). Moreover, in the data set with A549, the “Minimum toxicity concentration of drug (MTC) A549” value is over 100 ± 6.0 µM. In the data set with HEK 293, the “Minimum toxicity concentration of drug (MTC) HEK 293” value was 3.1 ± 8.2 µM. Also, in the data set with HepG2, the “Minimum toxicity concentration of drug (MTC) HepG2” value was over 100 ± 5.0 µM. In addition, the “Minimum toxicity concentration of drug (MTC) THP1” value in the data set with THP1 is over 100 ± 9.0 µM. The “Drug–drug interactions” value with MRSA [3] (compound with vancomycin) and in the data set with M. tuberculosis H37Rv [4] was “Indifference (0.25–4 indifferent or additive activity)” each time. Further, the FIC in the data set on MRSA [3] (compound with vancomycin) was determined as 1.2; in the data set with M. tuberculosis H37Rv [4], 1. For the same compound, the figures for the MIC50 with MRSA [3] and in the data set with M. tuberculosis H37Rv [4] were 12.5 µM and 6.25 µM, respectively. Besides, in the data set with M. tuberculosis H37Rv [4] (rifampicin plus compound), the “Effect against M. tuberculosis in combination with rifampicin” value is “synergistic or bactericidal effects”. Besides, in the data set on MRSA [5], the “MBC for MRSA” value is 12.5. For the same compound, the “MBC for TB. H37Rv” value against TB. H37Rv came to 50. Further, the “Effect of sub-inhibitory combination with vancomycin on MRSA growth” value in the data set with MRSA [6] is given as “substantially inhibited growth of MRSA”. Further, the “Concentration at which killing was observed” value in the data set on MRSA [6] is recorded as 12.5 μg mL^–1. Besides, the “Killing effect with rifampicin” value in the data set on M. tuberculosis was “comparable killing effects”. In addition, the “Toxicity against THP1 and/or HEK 293 cells” value in [7] is “some toxicity”.

Source of the values: PMC7729195, “Pharmacodynamic Functions of Synthetic Derivatives for Treatment of Methicillin-Resistant Staphylococcus aureus (MRSA) and Mycobacterium tuberculosis” (Frontiers in Microbiology, 2020).
